Source: article PMC4794652, “Identification of E-cadherin signature motifs functioning as cleavage sites for Helicobacter pylori HtrA” (Scientific Reports, 2016)
Entries after “also recorded” stand apart in the source; their conditions may differ. No end group written: not given here.

Tests used:
[1] = test system: HtrA wild-type (H. pylori); assay: Direct peptide binding to immobilised HtrA by surface plasmon resonance (SPR); conditions: for direct binding to immobilised HtrA (SPR response) / concentration-dependent SPR binding to HtrA, C-terminal carboxyl vs amide: SPR-2, 25 °C, 25 μl/min; for direct binding to immobilised HtrA (SPR response): HBS-P (10 mM HEPES-buffered saline, 150 mM NaCl, 0.005% Tween), against significance threshold, in words (Fig. 4C); for concentration-dependent SPR binding to HtrA, C-terminal carboxyl vs amide: HBS-P, in words (Fig. 4D, S3B, S3C)
Procedure: Affinity studies were performed on a Sierra Sensors GmbH SPR-2 instrument. Measurements were performed at 25 °C with a flow rate of 25 μl/min. Carboxymethyl dextran matrix high-density sensor chips (SPR-2 Affinity Sensor HC, batch 10-BC-04-154-A, Sierra Sensors) were used to immobilise 20 μg/ml HtrA wild-type (wt) in 10 mM HEPES (HEPES buffer 1 M solution, pH 7.3, Fisher Scientific) by adding 198 μl amine coupling with an activation solution (200 mM N-ethyl-3-(3-dimethylaminopropyl)-carbodiimide [EDC] and 50 mM N-hydroxysuccinimide [NHS]). The SPR sensor surface was loaded with 100 μl protein and subsequently treated by injecting 192 μl of 1 M ethanolamine at pH 8.5 for inactivation of excess coupling groups. HBS-P (10 mM HEPES-buffered saline, 150 mM NaCl, 0.005% Tween) served as running and sample buffer for peptide measurements. Peptide samples were directly dissolved in HBS-P buffer. The experiments with the non-peptidic compounds were performed utilising HBS-PD running buffer (10 mM HEPES-buffered saline with 3% DMSO, 150 mM NaCl, 0.005% Tween).

[2] = test system: H. pylori HtrA; assay: Competition experiment: interference with P1-mediated HtrA inhibition (rCdh1 cleavage, Western blot); type: biochemical; conditions: 100 μM peptides, 50 ng rCdh1, 200 ng rHtrA, 16 h, 37 °C, in words (Fig. S4B)
Procedure: (§1) Proteins were separated by SDS PAGE and analysed by Western blot using specific antibodies against HtrA[21], the extracellular domains EC5 (H108, Santa Cruz Biotechnology and ab40772, Abcam), EC1 (SHE78-7, Invitrogen) and EC2 (HecD1, Calbiochem) of E-cadherin, or the intracellular domain (24E10, Cell Signaling). His6-tagged proteins were analysed using an anti-His5-antibody (Qiagen). GAPDH (Cell Signaling) and β-actin (Sigma) were detected as loading controls. Where indicated, signals of protein bands were quantified using the ImageLab software (BioRad). Graphical presentation and statistical evaluations (Student’s t-test) were performed with GraphPad Prism 5 and p-values of ***p ≤ 0.001, **p ≤ 0.01 and *p ≤ 0.05 were considered statistically significant.
Purification of recombinant H. pylori HtrA and in vitro cleavage assays have been described elsewhere. […]
Figure S4. […] (A) Synthesized peptides based on the most frequent detected peptide during label-free mass spectrometry-based proteomic analysis. […] The cleavage fragments were analyzed by Western blot and detected using an antibody against the EC5. (D) Quantitative analysis of the relative amount of β-actin in whole cell lysates (WCL) of the H. pylor i-infected cells by blot densitometry from […]
1 Niessen, C. M. & Gumbiner, B. M. Cadherin-mediated cell sorting not determined by binding or […]

[3] = test system: H. pylori HtrA; assay: In vitro HtrA-mediated E-cadherin (rCdh1) cleavage, inhibition by peptides (Western blot); type: biochemical
Procedure: as §1
Purification of recombinant H. pylori HtrA and in vitro cleavage assays have been described elsewhere. Briefly, 200 ng recombinant HtrA was incubated with 50 ng recombinant hCdh1 (R&D Systems) in 50 mM HEPES pH 7.4 and 100 μM EDTA for 16 h (or for the indicated time periods) at 37 °C. Where indicated, test peptides were added.

[4] = test system: H. pylori transmigration across MKN-28 cells; assay: Transmigration of H. pylori across polarised MKN-28 cell monolayer (transwell filter assay); type: cell-based, H. pylori; human (MKN-28 cells); conditions: 100 μM, 200 μM, 500 μM P1; MOI 50; cfu from basal chamber; n = 3, mean ± std dev; in words (Fig. 5C)
Text: (§2) The human gastric adenocarcinoma cell line AGS is E-cadherin-negative and was derived from an adenocarcinoma of the stomach of a person (ECACC, 89090402). AGS cells expressing hCdh1 were generated by transfection using a plasmid containing E-cadherin wild-type cDNA[50] which has been kindly provided by Rohan D. Teasdale (University of Queensland, Australia). E-cadherin-positive MKN-28 cells (JCRB, 0253, obtained from the Max-Planck Institute for Infection Biology) were originally described as being isolated from a moderately differentiated tubular adenocarcinoma and have been frequently used to study E-cadherin-dependent processes. The gastric epithelial NCI-N87 cells (ATCC, CRL-5822) were included as an additional E-cadherin-expressing cell line[24] and were derived from metastasis in the liver. All cells have been described previously[24][51] and were grown in RPMI 1640 medium containing 4 mM glutamine (Invitrogen) and 10% FCS (Sigma) in a humidified atmosphere at 37 °C. […] Adherence of H. pylori was quantitated in a cfu (colony-forming unit) assay. […] The number of cfu was determined by growth on agar plates for 72 h. […] The number of transmigrated bacteria was determined as cfu by taking aliquots from the basal chambers. […]

[5] = test system: HtrA in H. pylori infections of several other cell lines; assay: Inhibition of hCdh1 NTF formation in H. pylori infections of several other cell lines; type: cell-based; conditions: different infection doses, data not shown, in words
Text: as §2

[6] = test system: HtrA in H. pylori-infected AGS cells; assay: Inhibition of HtrA in H. pylori-infected AGS cells transfected with hCdh1 (formation of 90 kDa hCdh1 NTF fragment); type: cell-based, H. pylori; human (AGS cells); conditions: transfected AGS cells expressing hCdh1, H. pylori infection 16 h, 50 μl supernatant; blot densitometry, three independent experiments; in words (Fig. 5B)
Procedure: Figure 5 Inhibition of HtrA-mediated E-cadherin cleavage. (A) 50 ng rCdh1 was incubated with 200 ng HtrA and indicated concentrations of P1. rCdh1 fragments and HtrA were detected using specific antibodies. (B) Transfected AGS cells expressing hCdh1 were infected with H. pylori (Hp) or left untreated (–) for 16 h. 50 μl aliquots of the supernatants were separated by SDS PAGE and blotted onto membranes. The 90 kDa hCdh1^NTF fragment was detected by Western blots. The relative amount of hCdh1^NTF fragment was quantified by blot densitometry from three independent experiments. […] (C) Polarised MKN-28 cells grown on transwell filters were infected with H. pylori in the presence and absence of peptide P1 at different concentrations (100 μM, 200 μM, 500 μM). Bacteria that had transmigrated across the MKN-28 monolayer on the filter were counted (n = 3, mean ± std dev).
The human gastric adenocarcinoma cell line AGS is E-cadherin-negative and was derived from an adenocarcinoma of the stomach of a person (ECACC, 89090402). […] Adherence of H. pylori was quantitated in a cfu (colony-forming unit) assay. […] The number of cfu was determined by growth on agar plates for 72 h. […] The number of transmigrated bacteria was determined as cfu by taking aliquots from the basal chambers. […]

Substance: NDNAPIPEPR [Peptide P5]
- direct binding to immobilised HtrA (SPR response) [1]: positive binding response above the significance threshold

Substance: P1-NH2: P1 with a C-terminal alpha-amide (TGTLLLILSDVNDNAPIPEPR-NH2) [Peptide P1-NH2]
- concentration-dependent SPR binding to HtrA, C-terminal carboxyl vs amide [1]: concentration-dependent binding

Substance: TGTLLLI [Peptide P1_NT, short peptide P1_NT, contains the hydrophobic amino acid stretch TGTLLLI]
- interference with P1-mediated HtrA inhibition [2]: None of these peptides blocked HtrA-induced E-cadherin cleavage or interfered with P1-mediated HtrA inhibition
- blocking of HtrA-induced E-cadherin cleavage, 7-residue N-terminal peptides ([3]; 100 μM peptide, 50 ng rCdh1, 200 ng rHtrA, 16 h, 37 °C, in words (Fig. S4B)): None of these peptides blocked HtrA-induced E-cadherin cleavage

Substance: TGTLLLILSDVNDNAPIPEPR [Peptide P1]
- H. pylori transmigration across polarised MKN-28 monolayer [4]: strong concentration-dependent reduction of H. pylori transmigration; also recorded: inhibition of H. pylori transmigration
- direct binding to immobilised HtrA (SPR response) [1]: strong binding
- concentration-dependent SPR binding to HtrA, C-terminal carboxyl vs amide ([1]; listed as P1-OH): concentration-dependent binding; also recorded: stronger SPR signals; also recorded: greater SPR response than its amide counterpart
- binding specificity for HtrA ([1]; in words): binds with high specificity
- decrease in formation of hCdh1 NTF in other cell lines and infection doses [5]: This effect was also observed in H. pylori infections of several other cell lines and at different infection doses
- inhibition of in vitro HtrA-mediated E-cadherin cleavage ([3]; 100 μM peptide, 200 ng HtrA, 50 ng rCdh1, 50 mM HEPES pH 7.4, 100 μM EDTA, 16 h, 37 °C, Western blot, in words (Fig. 4A,B)): effectively inhibited in vitro HtrA-mediated E-cadherin cleavage; also recorded: efficiently inhibited HtrA-mediated E-cadherin cleavage
- inhibition of HtrA-mediated rCdh1 cleavage, concentration dependence ([3]; indicated concentrations of P1, 50 ng rCdh1, 200 ng HtrA, Western blot, in words (Fig. 5A)): strongly inhibited HtrA-mediated rCdh1 cleavage in a concentration-dependent manner
- inhibition of HtrA-mediated E-cadherin cleavage in vitro (summary) ([3]; summary statement without concentration, in words): efficiently blocked E-cadherin cleavage in vitro
- formation of hCdh1 NTF fragment (bioactivity in H. pylori-infected AGS cells) [6]: significant dose-dependent decrease in the formation of the hCdh1^NTF; also recorded: weaker, but still significant at higher concentrations
